target: T1, human TLR8 (Homo sapiens, UniProt Q9NR97); assay: HEK293-Blue-hTLR-8 cells assay (SEAP reporter, R848 stimulation); type: cell-based; conditions: HEK293-Blue-hTLR8 cells, R848 ligand, 20 h incubation
T1 sequence (Q9NR97 27-1041): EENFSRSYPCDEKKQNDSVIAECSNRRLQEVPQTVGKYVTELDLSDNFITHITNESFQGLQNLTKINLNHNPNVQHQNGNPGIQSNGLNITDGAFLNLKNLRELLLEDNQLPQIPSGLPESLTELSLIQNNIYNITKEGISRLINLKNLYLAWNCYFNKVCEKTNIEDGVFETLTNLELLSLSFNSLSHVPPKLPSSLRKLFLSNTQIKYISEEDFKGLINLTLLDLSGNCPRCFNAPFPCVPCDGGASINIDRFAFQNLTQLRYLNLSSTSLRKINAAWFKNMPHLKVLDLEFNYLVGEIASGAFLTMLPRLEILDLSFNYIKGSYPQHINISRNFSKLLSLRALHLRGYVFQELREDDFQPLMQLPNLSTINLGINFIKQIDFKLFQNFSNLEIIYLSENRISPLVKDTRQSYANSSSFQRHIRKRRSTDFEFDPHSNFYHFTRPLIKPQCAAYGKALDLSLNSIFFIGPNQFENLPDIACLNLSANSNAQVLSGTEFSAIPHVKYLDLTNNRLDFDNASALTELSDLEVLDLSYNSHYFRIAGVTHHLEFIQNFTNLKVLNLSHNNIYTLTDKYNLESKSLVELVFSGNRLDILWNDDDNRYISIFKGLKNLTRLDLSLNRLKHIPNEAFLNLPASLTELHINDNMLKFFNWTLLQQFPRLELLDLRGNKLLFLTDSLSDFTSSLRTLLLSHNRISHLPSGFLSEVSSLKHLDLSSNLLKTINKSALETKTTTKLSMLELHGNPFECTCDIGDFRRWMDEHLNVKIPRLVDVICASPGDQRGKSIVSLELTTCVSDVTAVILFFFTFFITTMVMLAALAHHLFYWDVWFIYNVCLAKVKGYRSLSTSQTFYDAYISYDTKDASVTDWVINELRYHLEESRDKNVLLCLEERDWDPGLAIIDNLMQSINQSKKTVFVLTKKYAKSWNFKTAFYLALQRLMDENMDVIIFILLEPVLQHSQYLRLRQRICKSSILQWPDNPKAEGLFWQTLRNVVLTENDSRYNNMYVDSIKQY
Procedure: The following tests were carried out in order to determine the activity of the compounds of formula (I) in HEK293-Blue-hTLR-7/8/9 cells assay.
HEK293-Blue-hTLR-8 Cells Assay:
A stable HEK293-Blue-hTLR-8 cell line was purchased from InvivoGen (Cat. #: hkb-htlr8, San Diego, Calif., USA). These cells were originally designed for studying the stimulation of human TLR8 by monitoring the activation of NF-κB. A SEAP (secreted embryonic alkaline phosphatase) reporter gene was placed under the control of the IFN-β minimal promoter fused to five NF-κB and AP-1-binding sites. The SEAP was induced by activating NF-κB and AP-1 via stimulating HEK-Blue hTLR8 cells with TLR8 ligands. Therefore the reporter expression was declined by TLR8 antagonist under the stimulation of a ligand, such as R848, for incubation of 20 h. The cell culture supernatant SEAP reporter activity was determined using QUANTI-Blue™ kit (Cat. #: rep-qb1, Invivogen, San Diego, Calif., USA) at a wavelength of 640 nm, a detection medium that turns purple or blue in the presence of alkaline phosphatase.
HEK293-Blue-hTLR8 cells were incubated at a density of 250,000˜450,000 cells/mL in a volume of 170 μL in a 96-well plate in Dulbecco's Modified Eagle's medium (DMEM) containing 4.5 g/L glucose, 50 U/mL penicillin, […], […], 2 mM L-glutamine, 10% (v/v) heat-inactivated fetal bovine serum with addition of 20 μL test compound in a serial dilution in the presence of final DMSO at 1% and 10 μL of 60 uM R848 in above DMEM, perform incubation under 37° C. in a CO2 incubator for 20 h. Then 20 μL of the supernatant from each well was incubated with 180 μL Quanti-blue substrate solution at 37° C. for 2 h and the absorbance was read at 620˜655 nm using a spectrophotometer. The signalling pathway that TLR8 activation leads to downstream NF-κB activation has been widely accepted, and therefore similar reporter assay was modified for evaluating TLR8 antagonist.

IC50 | Structure (SMILES)
71 nM | C[C@@H]1CN(c2ccc(C#N)c3ncccc23)C[C@H](C2=Nc3cccc(C4CCNCC4)c3CN2)O1 [Example 18, 5-[(2R,6R)-2-methyl-6-[5-(4-piperidyl)-3,4-dihydroquinazolin-2-yl]morpholin-4-yl]quinoline-8-carbonitrile]
148 nM | C[C@@H]1CN(c2ccc(C#N)c3ncccc23)C[C@H](C2=Nc3ccc(N4CCNCC4)cc3CCN2)O1 [Example 17, 5-[(2R,6R)-2-methyl-6-(7-piperazin-1-yl-4,5-dihydro-3H-1,3-benzodiazepin-2-yl)morpholin-4-yl]quinoline-8-carbonitrile]
191 nM | C[C@@H]1CN(c2ccc(C#N)c3ncccc23)C[C@H](C2=Nc3cccc(C4=CCNCC4)c3CCN2)O1 [Example 16, 5-[(2R,6R)-2-methyl-6-[6-(1,2,3,6-tetrahydropyridin-4-yl)-4,5-dihydro-3H-1,3-benzodiazepin-2-yl]morpholin-4-yl]quinoline-8-carbonitrile]
87 nM | C[C@@H]1CN(c2ccc(C#N)c3ncccc23)C[C@H](C2=Nc3cccc(N4CCC5(CCNC5)C4)c3CN2)O1 (stereo partly drawn) [Example 13, 5-[(2R,6R)-2-[5-(2,7-diazaspiro[4.4]nonan-2-yl)-3,4-dihydroquinazolin-2-yl]-6-methyl-morpholin-4-yl]quinoline-8-carbonitrile]

The remaining lines, values behind:

Structure (SMILES) | IC50
C[C@@H]1CN(c2ccc(C#N)c3ncccc23)C[C@H](C2=Nc3ccc(N4CCNCC4)cc3CN2)O1 [Example 7, 5-[(2R,6R)-2-methyl-6-(6-piperazin-1-yl-3,4-dihydroquinazolin-2-yl)morpholin-4-yl]quinoline-8-carbonitrile] | < 3 nM
C[C@@H]1CN(c2ccc(C#N)c3ncccc23)C[C@H](C2=Nc3cc(N4CCNCC4)ccc3CN2)O1 [Example 8, 5-[(2R,6R)-2-methyl-6-(7-piperazin-1-yl-3,4-dihydroquinazolin-2-yl)morpholin-4-yl]quinoline-8-carbonitrile] | 4 nM
C[C@@H]1CN(c2ccc(C#N)c3ncccc23)C[C@H](C2=Nc3cccc(N4CCNCC4)c3CN2)O1 [Example 6, 5-[(2R,6R)-2-methyl-6-(5-piperazin-1-yl-3,4-dihydroquinazolin-2-yl)morpholin-4-yl]quinoline-8-carbonitrile] | 8 nM
C[C@@H]1CN(c2ccc(C#N)c3ncccc23)C[C@H](C2=Nc3c(cccc3N3CCNCC3)CN2)O1 [Example 9, 5-[(2R,6R)-2-methyl-6-(8-piperazin-1-yl-3,4-dihydroquinazolin-2-yl)morpholin-4-yl]quinoline-8-carbonitrile] | 46 nM
C[C@@H]1CN(c2ccc(C#N)c3ncccc23)C[C@H](C2=Nc3cccc(N4CCN(C)CC4)c3CN2)O1 [Example 12, 5-[(2R,6R)-2-methyl-6-[5-(4-methylpiperazin-1-yl)-3,4-dihydroquinazolin-2-yl]morpholin-4-yl]quinoline-8-carbonitrile] | 14 nM

From US11548884B2, “Cyclic amidine compounds for the treatment of autoimmune disease” (Hoffmann-La Roche Inc., priority 2018, dated 2023)
